{
  "source": "patent US20240390295A1",
  "about": "“METHODS FOR TREATING DEPRESSION” (JANSSEN PHARMACEUTICA NV, priority 2020, published 2024)",
  "type_in_all_cases": "in vivo, human",
  "key": {"[1]": {"system": "adult patients (aged 18-64 years) with TRD", "assay": "CADSS-defined dissociation (CADSS total score >4)", "conditions": "for mean individual CADSS scores at recurrence: across follow-up timeframes", "excerpt": "One of skill in the art would readily be able to measure a patient's adverse events from experience and one or more tools utilized to make such assessments. For example, the Clinician-Administered Dissociative States Scale (CADSS) is an technique utilized to measure present-state dissociative symptoms, and, thus, may be utilized to assess treatment-emergent dissociative symptoms. The CADSS consists of 23 subjective items, divided into 3 components: Depersonalization (Items 3 to 7, 20, and 23), derealization (Items 1, 2, 8 to 13, 16 to 19, and 21) and amnesia (Items 14, 15, and 22). Participant's responses are coded on a 5-point scale (0=not at all through to 4=extremely). Thus, higher CADSS values represent a worse dissociative state, whereas lower CADSS values are indicative of a mild dissociative state.\n(§1) Vital signs, the Clinician-Administered Dissociative States Scale (CADSS), and the Modified Observer's Assessment of Alertness/Sedation (MOAA/S) were assessed at baseline and all treatment sessions (predose, and at 40 minutes, 1 hour [vital signs only unless spontaneously reported by the patient], and 1.5 hours postdose). Routine blood pressure (BP) readings were conducted at each treatment session, with elevations reported as AEs based on the clinician's judgement. The CADSS assessed treatment-emergent dissociative symptoms and consists of 23 questions, each coded on a 5-point scale (0=not at all, 1-mild, 2-moderate, 3=severe, 4-extreme), yielding a total score 0-92.11 A CADSS total score >4 indicated the presence of dissociative symptoms. The MOAA/S assessed treatment-emergent sedation: scores range from (=no response to painful stimulus to 5=readily responds to name spoken in normal tone. Any decrease in MOAA/s from pre-dose (score <5) indicated some degree of sedation. An abnormal elevation in BP was defined as systolic BP ≥180 mmHg and ≥20 mmHg higher than baseline and/or diastolic BP ≥105 mmHg and ≥15 mmHg greater than baseline.\n(§2) This analysis included any treatment sessions in which patients received ESK (either open-label or blinded). The occurrence and severity of AEs were assessed within the following timeframes: Month 1 (Week 1 and Weeks 2-4), Month 2 (Weeks 5-8), Months 3-6 and Months 6-12. Severity of clinician-reported AEs were scored as 0 (no AE), 1 (mild), 2 (moderate), and 3 (severe). To examine AEs in individual patients over time, only patients who received at least one ESK dose in the following period were included in the analyses of each respective period. Thus, patient data were retained in (i) Week 1 if the patient received ≥1 ESK dose in Weeks 2-4, (ii) Weeks 2-4 if the patient received ≥1 ESK dose in Weeks 5-8, (iii) Weeks 5-8 if the patient received ≥1 ESK dose in Months 3-6, and (iv) Months 3-6 if the patient received ≥1 ESK dose in Months 6-12."}, "[2]": {"system": "adult patients (aged 18-64 years) with TRD", "assay": "MOAA/S-defined sedation (score <5)", "procedure": "For measuring treatment session induced sedation, one of skill in the art may use the Modified Observer's Assessment of Alertness/Sedation Scale (MOAA/S). […] For subjects with a score of 4, the assessment should be repeated every 15 minutes. And for subjects with a score of ≤3, the assessment should be repeated every 5 minutes until the score. In some embodiments, the results of the MOAA/S may be correlated to levels of sedation defined by the American Society of Anesthesiologists (ASA) continuum.\nas §1, §2"}, "[3]": {"system": "adult patients (aged 18-64 years) with TRD", "assay": "Measure-based increased blood pressure (abnormal elevation in BP)", "procedure": "as §1, §2"}, "[4]": {"conditions": "Months 3-6, overall rate for timeframe"}, "[5]": {"conditions": "Months 6-12, AE twice in Week 1"}, "[6]": {"conditions": "Months 6-12, overall rate for timeframe"}, "[7]": {"conditions": "Week 1, overall rate for timeframe"}, "[8]": {"conditions": "Weeks 2-4, overall rate for timeframe"}, "[9]": {"conditions": "Weeks 5-8, overall rate for timeframe"}, "[10]": {"conditions": "human, in vivo, other: intranasal"}},
  "data": [
    {"smiles": "CN[C@]1(c2ccccc2Cl)CCCCC1=O", "note": "[esketamine, (S)-2-(2-chlorophenyl)-2-(methylamino)cyclohexanone]", "values": [
      {"measurement": "CADSS-defined dissociation", "setting": "[1]; Months 3-6, AE once in Week 1", "result": 42.7, "unit": "%"},
      {"measurement": "CADSS-defined dissociation", "setting": "[1]; Months 3-6, AE twice in Week 1", "result": 61.3, "unit": "%"},
      {"measurement": "CADSS-defined dissociation", "setting": "[1]; Months 3-6, No AE in Week 1", "result": 19.4, "unit": "%"},
      {"measurement": "CADSS-defined dissociation", "setting": "[1]; [4]", "result": 38.6, "unit": "%"},
      {"measurement": "CADSS-defined dissociation", "setting": "[1]; Months 6-12, AE once in Week 1", "result": 26.8, "unit": "%"},
      {"measurement": "CADSS-defined dissociation", "setting": "[1]; [5]", "result": 38.7, "unit": "%"},
      {"measurement": "CADSS-defined dissociation", "setting": "[1]; Months 6-12, No AE in Week 1", "result": 15.9, "unit": "%"},
      {"measurement": "CADSS-defined dissociation", "setting": "[1]; [6]", "result": 25.9, "unit": "%"},
      {"measurement": "CADSS-defined dissociation", "setting": "[1]; [7]", "result": 56.6, "unit": "%"},
      {"measurement": "CADSS-defined dissociation", "setting": "[1]; Weeks 2-4, AE once in Week 1", "result": 59.1, "unit": "%"},
      {"measurement": "CADSS-defined dissociation", "setting": "[1]; Weeks 2-4, AE twice in Week 1", "result": 88.8, "unit": "%"},
      {"measurement": "CADSS-defined dissociation", "setting": "[1]; Weeks 2-4, No AE in Week 1", "result": 24.8, "unit": "%"},
      {"measurement": "CADSS-defined dissociation", "setting": "[1]; [8]", "result": 53.1, "unit": "%"},
      {"measurement": "CADSS-defined dissociation", "setting": "[1]; Weeks 5-8, AE once in Week 1", "result": 32.5, "unit": "%"},
      {"measurement": "CADSS-defined dissociation", "setting": "[1]; Weeks 5-8, AE twice in Week 1", "result": 64.6, "unit": "%"},
      {"measurement": "CADSS-defined dissociation", "setting": "[1]; Weeks 5-8, No AE in Week 1", "result": 15.6, "unit": "%"},
      {"measurement": "CADSS-defined dissociation", "setting": "[1]; [9]", "result": 34.9, "unit": "%"},
      {"measurement": "patients with maximum CADSS score >42", "setting": "[1]; [10]", "result": "< 3", "unit": "patients"},
      {"measurement": "measure-based dissociation not reported during Week 1, patients", "setting": "[1]; human, in vivo, other: nasal spray (intranasal), 1 week", "result": 43, "unit": "%"},
      {"measurement": "mean individual CADSS scores at recurrence", "setting": "[1]; maximum CADSS total score <=14", "result": "1.2-1.4"},
      {"measurement": "mean individual CADSS scores at recurrence", "setting": "[1]; maximum CADSS total scores 15-24 and 24-42", "result": "1.3-2.1"},
      {"measurement": "MOAA/S-defined sedation", "setting": "[2]; Months 3-6, AE once in Week 1", "result": 47.7, "unit": "%"},
      {"measurement": "MOAA/S-defined sedation", "setting": "[2]; Months 3-6, AE twice in Week 1", "result": 74.5, "unit": "%"},
      {"measurement": "MOAA/S-defined sedation", "setting": "[2]; Months 3-6, No AE in Week 1", "result": 23.8, "unit": "%"},
      {"measurement": "MOAA/S-defined sedation", "setting": "[2]; [4]", "result": 37.5, "unit": "%"},
      {"measurement": "MOAA/S-defined sedation", "setting": "[2]; Months 6-12, AE once in Week 1", "result": 38.3, "unit": "%"},
      {"measurement": "MOAA/S-defined sedation", "setting": "[2]; [5]", "result": 51.8, "unit": "%"},
      {"measurement": "MOAA/S-defined sedation", "setting": "[2]; Months 6-12, No AE in Week 1", "result": 18.8, "unit": "%"},
      {"measurement": "MOAA/S-defined sedation", "setting": "[2]; [6]", "result": 28.4, "unit": "%"},
      {"measurement": "MOAA/S-defined sedation", "setting": "[2]; [7]", "result": 38.1, "unit": "%"},
      {"measurement": "MOAA/S-defined sedation", "setting": "[2]; Weeks 2-4, AE once in Week 1", "result": 65.7, "unit": "%"},
      {"measurement": "MOAA/S-defined sedation", "setting": "[2]; Weeks 2-4, AE twice in Week 1", "result": 95.4, "unit": "%"},
      {"measurement": "MOAA/S-defined sedation", "setting": "[2]; Weeks 2-4, No AE in Week 1", "result": 22.0, "unit": "%"},
      {"measurement": "MOAA/S-defined sedation", "setting": "[2]; [8]", "result": 44.2, "unit": "%"},
      {"measurement": "MOAA/S-defined sedation", "setting": "[2]; Weeks 5-8, AE once in Week 1", "result": 42.0, "unit": "%"},
      {"measurement": "MOAA/S-defined sedation", "setting": "[2]; Weeks 5-8, AE twice in Week 1", "result": 81.4, "unit": "%"},
      {"measurement": "MOAA/S-defined sedation", "setting": "[2]; Weeks 5-8, No AE in Week 1", "result": 15.8, "unit": "%"},
      {"measurement": "MOAA/S-defined sedation", "setting": "[2]; [9]", "result": 33.1, "unit": "%"},
      {"measurement": "MOAA/S mean recurrence scores", "setting": "[2]; after Week 1 or Week 4, regardless of highest MOAA/S", "result": "3.5-4.0"},
      {"measurement": "MOAA/S mean recurrence score, single patient exception", "setting": "[2]; [10]", "result": 3.25},
      {"measurement": "measure-based sedation not reported during Week 1, patients", "setting": "[2]; human, in vivo, other: intranasal, 1 week", "result": 62, "unit": "%"},
      {"measurement": "Measured-based increased blood pressure", "setting": "[3]; Months 3-6, AE once in Week 1", "result": 6.3, "unit": "%"},
      {"measurement": "Measured-based increased blood pressure", "setting": "[3]; Months 3-6, AE twice in Week 1", "result": 33.3, "unit": "%"},
      {"measurement": "Measured-based increased blood pressure", "setting": "[3]; Months 3-6, No AE in Week 1", "result": 2.4, "unit": "%"},
      {"measurement": "Measured-based increased blood pressure", "setting": "[3]; [4]", "result": 2.7, "unit": "%"},
      {"measurement": "Measured-based increased blood pressure", "setting": "[3]; Months 6-12, AE once in Week 1", "result": 6.3, "unit": "%"},
      {"measurement": "Measured-based increased blood pressure", "setting": "[3]; [5]", "result": 0, "unit": "%"},
      {"measurement": "Measured-based increased blood pressure", "setting": "[3]; Months 6-12, No AE in Week 1", "result": 3.1, "unit": "%"},
      {"measurement": "Measured-based increased blood pressure", "setting": "[3]; [6]", "result": 3.2, "unit": "%"},
      {"measurement": "Measured-based increased blood pressure", "setting": "[3]; [7]", "result": 3.6, "unit": "%"},
      {"measurement": "Measured-based increased blood pressure", "setting": "[3]; Weeks 2-4, AE once in Week 1", "result": 35.7, "unit": "%"},
      {"measurement": "Measured-based increased blood pressure", "setting": "[3]; Weeks 2-4, AE twice in Week 1", "result": 80.0, "unit": "%"},
      {"measurement": "Measured-based increased blood pressure", "setting": "[3]; Weeks 2-4, No AE in Week 1", "result": 3.4, "unit": "%"},
      {"measurement": "Measured-based increased blood pressure", "setting": "[3]; [8]", "result": 4.7, "unit": "%"},
      {"measurement": "Measured-based increased blood pressure", "setting": "[3]; Weeks 5-8, AE once in Week 1", "result": 17.9, "unit": "%"},
      {"measurement": "Measured-based increased blood pressure", "setting": "[3]; Weeks 5-8, AE twice in Week 1", "result": 60.0, "unit": "%"},
      {"measurement": "Measured-based increased blood pressure", "setting": "[3]; Weeks 5-8, No AE in Week 1", "result": 2.6, "unit": "%"},
      {"measurement": "Measured-based increased blood pressure", "setting": "[3]; [9]", "result": 3.4, "unit": "%"}
    ]}
  ]
}
